Source: PubChem BioAssay AID330 (DTP/NCI, 2004)
Inconclusive results and toxic doses are left out.

Tested on: P388 leukemia ip, CD2F1 mice, survival T/C
Experiment: NCI In Vivo Anticancer Drug Screen. Data for tumor model P388 Leukemia (intraperitoneal) in CD2F1 (CDF1) mice
Details: endpoint: median survival time, higher = longer survival
Outline: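 Mice carrying the transplanted tumor received test compound or vehicle. Survival was recorded in each group, and the value is the treated-group measurement divided by that of the vehicle-treated control group.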

[1] = dose: 50.0 mg/kg/injection, schedule: Q01DX005 (ip), vehicle: saline with Tween-80
[2] = dose: 100.0 mg/kg/injection, schedule: Q01DX005 (ip), vehicle: saline with Tween-80
[3] = dose: 200.0 mg/kg/injection, schedule: Q01DX005 (ip), vehicle: saline with Tween-80
[4] = dose: 50.0 mg/kg/injection, schedule: Q01DX009 (ip), vehicle: saline with Tween-80
[5] = dose: 100.0 mg/kg/injection, schedule: Q01DX009 (ip), vehicle: saline with Tween-80
[6] = dose: 200.0 mg/kg/injection, schedule: Q01DX009 (ip), vehicle: saline with Tween-80
[7] = dose: 25.0 mg/kg/injection, schedule: Q01DX009 (ip), vehicle: Klucel (hydroxypropylcellulose) (HPC)
[8] = dose: 50.0 mg/kg/injection, schedule: Q01DX009 (ip), vehicle: Klucel (hydroxypropylcellulose) (HPC)
[9] = dose: 100.0 mg/kg/injection, schedule: Q01DX009 (ip), vehicle: Klucel (hydroxypropylcellulose) (HPC)
[10] = dose: 200.0 mg/kg/injection, schedule: Q01DX009 (ip), vehicle: Klucel (hydroxypropylcellulose) (HPC)

Clc1ccccc1-c1nnc(-c2cccc(-c3nnc(-c4ccccc4Cl)s3)c2)s1
T/C [1]: 91 % of control
T/C [2]: 89 % of control
T/C [3]: 90 % of control

Cc1ccc(Sc2cccc3c(C)c4cccc5c4c(c23)C[S+]5c2ccc(C)cc2)cc1 (configuration not stated)
T/C (dose: 2.0 mg/kg/injection, schedule: Q01DX009 (ip), vehicle: saline with Tween-80): 104 % of control
T/C (dose: 3.0 mg/kg/injection, schedule: Q01DX009 (ip), vehicle: saline with Tween-80): 122 % of control

Cc1ccc(S(=O)c2cc(C)cc(C(C)(C)C)c2O)cc1 (configuration not stated)
T/C [4]: 103 % of control
T/C [5]: 105 % of control
T/C [6]: 96 % of control

Cc1cc(=O)oc2c(-c3ccccc3)n[nH]c(=O)c12
T/C (dose: 60.0 mg/kg/injection, schedule: Q01DX005 (ip), vehicle: Klucel (hydroxypropylcellulose) (HPC)): 104 % of control
T/C (dose: 120.0 mg/kg/injection, schedule: Q01DX005 (ip), vehicle: Klucel (hydroxypropylcellulose) (HPC)): 95 % of control
T/C (dose: 240.0 mg/kg/injection, schedule: Q01DX005 (ip), vehicle: Klucel (hydroxypropylcellulose) (HPC)): 97 % of control

CCn1cc(C(=O)O)c(=O)c2ccc(C)[n+](C)c21
T/C (dose: 100.0 mg/kg/injection, schedule: Q04DX002 (ip), vehicle: saline): 99 % of control
T/C (dose: 200.0 mg/kg/injection, schedule: Q04DX002 (ip), vehicle: saline): 100 % of control
T/C (dose: 400.0 mg/kg/injection, schedule: Q04DX002 (ip), vehicle: saline): 98 % of control

Nc1c(C(=O)Nc2ccc3c(c2)C(=O)c2ccccc2C3=O)ccc2c1C(=O)c1ccccc1C2=O
T/C (dose: 50.0 mg/kg/injection, schedule: Q01DX005 (ip), vehicle: Klucel (hydroxypropylcellulose) (HPC)): 107 % of control
T/C (dose: 100.0 mg/kg/injection, schedule: Q01DX005 (ip), vehicle: Klucel (hydroxypropylcellulose) (HPC)): 90 % of control
T/C (dose: 200.0 mg/kg/injection, schedule: Q01DX005 (ip), vehicle: Klucel (hydroxypropylcellulose) (HPC)): 100 % of control

CN1CCc2cc3c(cc2C(=O)Cc2ccc4c(c2C1)OCO4)OCO3
T/C (dose: 25.0 mg/kg/injection, schedule: Q04DX003 (ip), vehicle: saline with Tween-80): 95 % of control
T/C (dose: 50.0 mg/kg/injection, schedule: Q04DX003 (ip), vehicle: saline with Tween-80): 90 % of control
T/C (dose: 100.0 mg/kg/injection, schedule: Q04DX003 (ip), vehicle: saline with Tween-80): 90 % of control

NC(=O)c1ccc([N+](=O)[O-])o1
T/C (dose: 12.5 mg/kg/injection, schedule: Q01DX009 (ip), vehicle: saline): 99 % of control
T/C (dose: 25.0 mg/kg/injection, schedule: Q01DX009 (ip), vehicle: saline): 100 % of control
T/C (dose: 50.0 mg/kg/injection, schedule: Q01DX009 (ip), vehicle: saline): 95 % of control
T/C (dose: 100.0 mg/kg/injection, schedule: Q01DX009 (ip), vehicle: saline): 108 % of control

CC1(C)C/C(=C\c2cc(O)ccc2[N+](=O)[O-])C(=O)c2ccccc21
T/C [5]: 86 % of control
T/C [6]: 95 % of control
T/C (dose: 400.0 mg/kg/injection, schedule: Q01DX009 (ip), vehicle: saline with Tween-80): 90 % of control

CCOC(=Nc1ccc2ccccc2c1)SC(c1ccccc1)(c1ccccc1)c1ccccc1
T/C [1]: 107 % of control
T/C [2]: 95 % of control
T/C [3]: 87 % of control

O=c1[nH]cnc2c1nc(Br)n2C1OC(CO)C(O)C1O (configuration not stated)
T/C (dose: 6.25 mg/kg/injection, schedule: Q01DX009 (ip), vehicle: Klucel (hydroxypropylcellulose) (HPC)): 94 % of control
T/C (dose: 12.5 mg/kg/injection, schedule: Q01DX009 (ip), vehicle: Klucel (hydroxypropylcellulose) (HPC)): 94 % of control
T/C [7]: 94 % of control
T/C [8]: 97 % of control
T/C [9]: 94 % of control

CC1=CC(=O)C2OC2C1=O (configuration not stated)
T/C (dose: 5.0 mg/kg/injection, schedule: Q04DX002 (ip), vehicle: saline with Tween-80): 101 % of control

COc1cc(/C=C2\SC(=S)N(CCCN3CCOCC3)C2=O)ccc1O
T/C [4]: 91 % of control

O=C(c1ccccc1)C12CCC(CC1)C2
T/C [8]: 103 % of control
T/C [9]: 103 % of control
T/C [10]: 110 % of control

N#Cc1nc2c(nc1N)CCCCCCCCCC2
T/C [7]: 94 % of control
T/C [8]: 94 % of control
T/C [9]: 92 % of control
T/C [10]: 100 % of control

Nc1nnc2nc(CC(=O)/C=C/c3ccccc3)c(CC(=O)/C=C/c3ccccc3)nn12
T/C (dose: 50.0 mg/kg/injection, schedule: Q01DX005 (ip), vehicle: saline): 98 % of control
T/C (dose: 100.0 mg/kg/injection, schedule: Q01DX005 (ip), vehicle: saline): 97 % of control
T/C (dose: 200.0 mg/kg/injection, schedule: Q01DX005 (ip), vehicle: saline): 104 % of control
